Assay results taken from PubChem BioAssay AID1552 (Sanford-Burnham Center for Chemical Genomics, 2009).
The source made the active and inactive calls. How the calls were made is not given here.

Target: Ubiquitin-conjugating enzyme E2 N (Homo sapiens) (UniProt P61088)
Test: UBE2N binders by NMR, biophysical, purified protein (AID 1552)
Settings: NMR binding to purified UBE2N

Ubiquitin-conjugating enzyme E2 N (Homo sapiens), sequence (P61088 whole entry, looked up): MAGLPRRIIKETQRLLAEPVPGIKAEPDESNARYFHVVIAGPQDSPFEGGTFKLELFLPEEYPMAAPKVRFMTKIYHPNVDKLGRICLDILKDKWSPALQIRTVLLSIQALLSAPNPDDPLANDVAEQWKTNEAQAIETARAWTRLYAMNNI

Compound | Kd
Cn1nc(C(=O)NC2CCCCC2)c2ccccc2c1=O | > 4 mM (inactive)
O=C(Nc1ccncc1)Nc1ccc(F)cc1F | > 4 mM (inactive)
O=C(c1ccco1)N1CCCN(C(=O)c2ccco2)CC1 | > 4 mM (inactive)
Cn1cnnc1SCC(=O)Nc1nccs1 | > 4 mM (inactive)
Cc1sc2nc(SCC(=O)N(C)C)[nH]c(=O)c2c1C | > 4 mM (inactive)
CCOc1ccc(-c2n[nH]c(=S)n2C)cc1 | > 4 mM (inactive)
COc1cc(C)c(S(=O)(=O)N2CCN(C)CC2)cc1C | > 4 mM (inactive)
Nc1ccccc1C(=O)N1CCOCC1 | > 4 mM (inactive)
CC1=C/C(=C\c2c(O)[nH]c(=O)[nH]c2=O)C(C)=N1 | > 4 mM (inactive)
Cc1cc(C)c2nncn2n1 | > 4 mM (inactive)
O=C(O)c1cnc2n(c1=O)CCS2 | > 4 mM (inactive)
O=C(c1cc2ccccc2o1)c1nc2c(n1O)CCCCC2 | > 4 mM (inactive)
O=c1c2ccccc2nc2n1CCS2 | > 4 mM (inactive)
CNC(=S)Nc1ccc(C(=O)O)cc1 | > 4 mM (inactive)
Cc1cc(C)n2nc(N)nc2n1 | > 4 mM (inactive)
C=CC(C1=CC(=O)C(OC)=CC1=O)c1ccc(O)cc1 (configuration not stated) | > 4 mM (inactive)
O=C(Nc1cccc(Cl)c1)c1cnn2cccnc12 | > 4 mM (inactive)
O=c1cc(-c2ccccc2)oc2cc(O)cc(O)c12 | > 4 mM (inactive)
CC(=O)NC(O)C(=O)c1ccccc1 (configuration not stated) | > 4 mM (inactive)
CC(=O)Nc1ccc(N(C)C(C)=O)cc1 | > 4 mM (inactive)
COCc1cc(=O)oc2cc(O)c(Cl)cc12 | > 4 mM (inactive)
OCc1ccccc1O[C@@H]1O[C@H](CO)[C@@H](O)[C@H](O)[C@H]1O | > 4 mM (inactive)
CC(=O)Oc1c2c(c(CC=C(C)C)c3c1C(=O)C1=C[C@@H]4CC5C(C)(C)OC(C/C=C(\C)C(=O)O)(C4=O)[C@@]15O3)OC(C)(CCC=C(C)C)C=C2 (some centres not stated) | > 4 mM (inactive)
Cc1nc(-c2cccc(-c3noc(C)n3)c2)no1 | > 4 mM (inactive)

Compound | Kd
CC(C)(C)Cc1nc(-c2ccccn2)no1 | > 4 mM (inactive)
Cc1cc(C)n(S(=O)(=O)c2cc(C)c(C)cc2C)n1 | > 4 mM (inactive)
COC(=O)c1[nH]c2ccccc2c1C(=O)OC | > 4 mM (inactive)
O=C(Nc1cccc(C(F)(F)F)c1)c1cccnc1 | > 4 mM (inactive)
Nc1nnc(-c2ccncc2)s1 | > 4 mM (inactive)
O=C1N=c2ccccc2=C1c1sc(=S)[nH]c1O | > 4 mM (inactive)
Cc1cc(=O)[nH]c(N2CCN(Cc3ccccc3)CC2)n1 | > 4 mM (inactive)
C=C(C)C1(O)OC(=O)C=C1OC (configuration not stated) | > 4 mM (inactive)
NC(CCC(=O)Nc1ccc([N+](=O)[O-])cc1)C(=O)O (configuration not stated) | > 4 mM (inactive)
COc1cc2c(cc1OC)[C@@H]1C(=O)c3ccc4c(c3O[C@@H]1CO2)C=CC(C)(C)O4 | > 4 mM (inactive)
CNC(=O)Nc1cccc(C(F)(F)F)c1 | > 4 mM (inactive)
Cn1ccc(NC(=S)NC2CCCC2)n1 | > 4 mM (inactive)
Cc1cc(C)n(C2CCS(=O)(=O)C2)n1 (configuration not stated) | > 4 mM (inactive)
O=C1CSC(=NC(=O)c2ccccc2)N1 | > 4 mM (inactive)
CCOC(=O)N1CCCC1c1cccnc1 (configuration not stated) | > 4 mM (inactive)
COC(=O)CSc1ncnc2c(C)csc12 | > 4 mM (inactive)
COc1cc(C)c2c(c1C=O)Oc1c(c(C)c(O)c3c1C(O)OC3=O)OC2=O (configuration not stated) | > 4 mM (inactive)
O=S(=O)(c1ccc(F)c(Cl)c1)N1CCCC1 | > 4 mM (inactive)
Nc1nnc(C(F)(F)F)s1 | > 4 mM (inactive)
COC(=O)c1ccc(N2CCOCC2)nc1 | > 4 mM (inactive)
CC(CCC(=O)O)[C@H]1CCC2C3C(C[C@H](O)[C@@]21C)[C@@]1(C)CC[C@@H](O)C[C@H]1C[C@H]3O (some centres not stated) | > 4 mM (inactive)
O=S(=O)(CCN1CCCC1)c1ccccc1 | > 4 mM (inactive)
C=C(C)[C@H]1COc2cc3oc(=O)ccc3cc2O1 | > 4 mM (inactive)
